7 compounds from patent US8912218B2, “Alkylthiazol carbamate derivatives, preparation thereof and therapeutic use thereof” (Sanofi, priority 2008, dated 2014) can be followed below.

SMILES strings stand for the structures. pIC50: −log10 of the molar value.

One data set has as its system male OF 1 mice. Put plainly: analgesia test: abdominal stretches induced by PBQ (phenylbenzoquinone). Type of data set: in vivo. Particulars: 30 mg/kg p.o. at 120 minutes, PBQ 2 mg/kg i.p. The method, then:
The in vivo activity of the compounds of the invention was evaluated in an analgesia test.
Accordingly, intraperitoneal (i.p.) administration of PBQ (phenylbenzoquinone, 2 mg/kg in a 0.9% sodium chloride solution containing 5% of ethanol) to male OF 1 mice weighing 25 to 30 g causes abdominal stretches, on average 30 twists or contractions during the period from 5 to 15 minutes after injection. The test compounds are administered orally (p.o.) or intraperitoneally (i.p.) in suspension in Tween 80 at 0.5%, 60 minutes or 120 minutes before the administration of PBQ.
For example, compounds 28 and 30 of the table reduce by 33% and 80%, respectively, the number of stretches induced by PBQ, at a dose of 30 mg/kg p.o. at 120 minutes.

Data set [1] concerns the target T1, FAAH (Fatty Acid Amide Hydrolase) (Mus musculus, UniProt O08914).
T1 construct: Membrane homogenates are prepared at the time of use by homogenizing the tissues; from tissue; host or cells: mouse brain (minus the cerebellum), membrane homogenate
T1 sequence (O08914 1-579): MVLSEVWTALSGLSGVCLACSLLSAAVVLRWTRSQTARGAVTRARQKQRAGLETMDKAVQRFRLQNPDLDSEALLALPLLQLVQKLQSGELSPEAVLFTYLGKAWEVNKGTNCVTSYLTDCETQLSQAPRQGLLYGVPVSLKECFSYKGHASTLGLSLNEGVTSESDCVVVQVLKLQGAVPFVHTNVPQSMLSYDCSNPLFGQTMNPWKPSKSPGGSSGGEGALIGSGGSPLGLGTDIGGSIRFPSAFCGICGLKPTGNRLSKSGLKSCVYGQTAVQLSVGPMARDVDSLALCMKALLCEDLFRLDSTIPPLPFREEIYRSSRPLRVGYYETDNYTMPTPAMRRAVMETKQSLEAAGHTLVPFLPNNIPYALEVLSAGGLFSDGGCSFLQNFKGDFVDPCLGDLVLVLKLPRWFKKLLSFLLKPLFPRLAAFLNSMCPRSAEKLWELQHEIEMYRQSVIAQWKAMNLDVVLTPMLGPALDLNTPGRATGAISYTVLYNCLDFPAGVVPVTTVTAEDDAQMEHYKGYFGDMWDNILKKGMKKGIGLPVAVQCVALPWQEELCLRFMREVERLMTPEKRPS
Put plainly: radioenzymatic assay of hydrolysis of anandamide [1-3H ethanolamine] by FAAH. Particulars: mouse brain membrane homogenates; pre-incubation 20 minutes at 25° C.; anandamide final concentration 10 μM; read-out: IC50 (concentration inhibiting by 50% the control enzymatic activity of FAAH). Type of data set: biochemical. The method, then: The compounds of the invention were subjected to pharmacological tests allowing determination of their inhibitory effect on the enzyme FAAH (Fatty Acid Amide Hydrolase).
Accordingly, mouse brains (minus the cerebellum) are removed and stored at −80° C. Membrane homogenates are prepared at the time of use by homogenizing the tissues using a Precellys® apparatus in the reaction buffer (10 mM Tris-HCl pH=8, 150 mM NaCl and 1 mM ethylenediaminetetraacetic acid (EDTA)). The enzymatic reaction is conducted in 96-well Multiscreen filter plates, in a final volume of 70 μl. Reaction buffer supplemented with bovine serum albumin without fatty acids (BSA, 1 mg/ml) is used for the enzymatic reaction, the dilution of the compounds and of anandamide [1-^3H ethanolamine]. Added in succession to the wells are the reaction buffer containing the BSA (43 μl/well), the diluted test compounds at different concentrations (7 μl/well containing 1% DMSO) and the membrane preparation (10 μl/well or […] per assay). After the compounds have been pre-incubated with the enzyme at 25° C. for 20 minutes, the reaction is initiated by the addition of anandamide [1-^3H ethanolamine] […] The mixture is stirred for 10 minutes and then the aqueous phase containing the ethanolamine [1-^3H] is recovered by filtration under vacuum and counted by liquid scintillation.

`O=C(NCCC1CCN(c2cccc(-c3ccc(F)cc3)n2)CC1)OC(c1nccs1)C(F)(F)F` (racemic) [Compound 50, 2,2,2-Trifluoro-1-thiazol-2-ylethyl (+/−)-2-[6′-(4-fluorophenyl)-3,4,5,6-tetrahydro-2H-[1,2′]bipyridinyl-4-yl]ethylcarbamate]: the melting point fell in the range of 121 to 123 °C.

In the case of `O=C(NCCC1CCN(c2ccc3cc(Cl)ccc3n2)CC1)OC(c1nccs1)C(F)(F)F` (racemic) [Compound 106, 2,2,2-Trifluoro-1-thiazol-2-ylethyl (+/−)-2-[1-(6-chloroquinolin-2-yl)piperidin-4-yl]ethylcarbamate], the melting point was 114 to 116 °C.

On to `O=C(NCCC1CCN(c2ccc(-c3ccc(F)cc3)cn2)CC1)OCc1nccs1` [Compound 28, Thiazol-2-ylmethyl 2-[5′-(4-fluorophenyl)-3,4,5,6-tetrahydro-2H-[1,2′]bipyridinyl-4-yl]-ethylcarbamate], for which the melting point was 131 to 133 °C. For the same compound, in the data set with male OF 1 mice, the “reduction of the number of stretches induced by PBQ” value was found to be 33%. For the same compound, the pIC50 in data set [1] was 8.52.

The compound `O=C(NCCC1CCN(c2ccc(-c3ccc(F)cc3)cn2)CC1)OCc1cscn1` [Compound 30, Thiazol-4-ylmethyl 2-[5′-(4-fluorophenyl)-3,4,5,6-tetrahydro-2H-[1,2′]bipyridinyl-4-yl]ethylcarbamate] gave a melting point of 130 to 132 °C. Further, the “reduction of the number of stretches induced by PBQ” value in the data set with male OF 1 mice was found to be 80%. In addition, the pIC50 in data set [1] was 8.15.

The compound `O=C(NCCC1CCN(c2ccc(-c3ccc(F)cc3)cn2)CC1)OCc1cncs1` [Compound 33, Thiazol-5-ylmethyl 2-[5′-(4-fluorophenyl)-3,4,5,6-tetrahydro-2H-[1,2′]bipyridinyl-4-yl]ethylcarbamate] came in with a melting point of 100 to 102 °C.

`CCOc1ccc(-c2ccc(N3CCC(CCNC(=O)OCc4nccs4)CC3)nc2)cc1` [Compound 38, Thiazol-2-ylmethyl 2-[5′-(4-ethoxyphenyl)-3,4,5,6-tetrahydro-2H-[1,2′]bipyridinyl-4-yl]ethylcarbamate]: the melting point was in the range of 157 to 159 °C.

The compound `O=C(NCCC1CCN(c2ccc3cc(F)ccc3n2)CC1)OCc1cncs1` [Compound 117, Thiazol-5-ylmethyl 2-[1-(6-fluoroquinolin-2-yl)piperidin-4-yl]ethylcarbamate] yielded a melting point of 100 to 102 °C.
